Experimental data: PMC8873473, “Antidiabetic, antioxidant, and anti-obesity effects of phenylthio-ethyl benzoate derivatives, and molecular docking study regarding α-amylase enzyme” (Scientific Reports, 2022)

Key:
[1] = target: T1, porcine pancreatic lipase enzyme (Sus scrofa, UniProt P00591); assay: Porcine pancreatic lipase inhibition (p-nitrophenyl butyrate hydrolysis); format: biochemical; conditions: read-out: Anti-lipase activity IC50 (converted)
T1 construct: purchased Frutarom (UK)
T1 sequence (P00591 1-450): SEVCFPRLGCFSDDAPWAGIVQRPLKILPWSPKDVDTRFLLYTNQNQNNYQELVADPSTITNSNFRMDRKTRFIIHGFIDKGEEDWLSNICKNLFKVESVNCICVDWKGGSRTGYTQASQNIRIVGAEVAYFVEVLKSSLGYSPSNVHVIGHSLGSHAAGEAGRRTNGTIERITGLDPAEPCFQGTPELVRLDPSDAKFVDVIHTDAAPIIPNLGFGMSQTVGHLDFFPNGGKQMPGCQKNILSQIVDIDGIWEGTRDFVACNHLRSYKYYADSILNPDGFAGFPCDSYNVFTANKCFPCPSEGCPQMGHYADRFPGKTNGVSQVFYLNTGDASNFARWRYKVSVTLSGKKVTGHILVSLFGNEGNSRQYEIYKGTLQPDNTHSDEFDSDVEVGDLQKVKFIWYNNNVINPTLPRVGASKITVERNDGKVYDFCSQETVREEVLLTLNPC
Experimental: The lipase inhibitory activity was conducted by following the method in the references with minor modifications[19]–[21]. The prepared synthesized compounds solutions (1 mg/ml) were diluted with 10% DMSO to produce five different dilutions (0.2, 0.4, 0.6, 0.8, and 1 mg/ml). […] A Tris–HCl buffer was used to zero UV–Vis spectrophotometer at 405 nm.
The hydrolysis of p-nitrophenyl butyrate to p-nitrophenyl was used to measure the influence of the synthetic acid esters on the porcine pancreatic lipase enzyme.

[2] = DPPH free radical scavenging test; conditions: 517 nm, 30 min incubation
Experimental: Four synthetic compounds were tested for the efficiency of scavenging free radicals matched with trolox and gallic acid as a basic. From the compounds, 1 mg/ml concentration solutions in methanol were prepared, and the solutions were used to prepare concentrations of 5, 10, 20, 30, 40, and 50 μg/ml. The DPPH reagent (0.002% w/v) was dissolved in methanol before mixed with working concentrations in ratios of 1:1:1 (compound:DPPH:methanol). The methanol solution was adopted as a blank. All the solutions were incubated for 30 min at room temperature in the dark. When the antioxidant compound reacts with DPPH, which can donate hydrogen, it is reduced the color changes from deep violet to light. Absorbance values were estimated by using a UV–Vis spectrophotometer at a wavelength of 517 nm. The DPPH inhibition percentage of all tested compound, trolox and gallic acid, was estimated according to the formula: Inhibitionpercentage=Ab-As/Ab×100%, where Ab is blank absorbance, and AS is sample absorbance. The IC50 values for tested synthetic compounds, trolox and gallic acid were determined from the curves.

[3] = β-Carotene linoleic acid antioxidant test; conditions: concentration 0.2 mg/ml; for Absorbance in β-carotene linoleic acid test: after 75 min, 470 nm; for Antioxidant efficiency in β-carotene linoleic acid test: compared with water (control) and α-tocopherol
Experimental: The activity of the synthesized compounds was assessed via performing a modified assay of Gazzani and Miller[17]. The method was based on the coupled oxidation of β-carotene and linoleic acid emulsion. The bleaching mechanism of β-carotene is produced from the hydro-peroxides created from linoleic acid[18]. During the oxidation process, the characteristic orange color of β-carotene and the chromophore will be lost. The presence of antioxidants can hinder the extent of the β-carotene bleaching. Briefly, 1 mg of β-carotene was dissolved in 2 ml of chloroform, 20 mg of linoleic acid, and 200 mg of Tween 20. A rotary evaporator entirely vaporized chloroform at a temperature of less than 30 °C under reduced pressure. Then 200 ml of distilled water saturated with oxygen was added to the flask, which was shaken vigorously for 30 min. A sample (5 ml) of the prepared emulsion was transferred to a series of tubes containing 0.1 ml of the synthesized compounds or tocopherol (2 mg/ml).
The control sample was prepared in the same way but without added antioxidants. Each sample type was prepared in triplicate. The samples were inserted in a water bath at 50 °C for 2 h. The absorbance of the samples was measured using a spectrophotometer at a wavelength of 470 nm, immediately after the preparation of the samples, and at 15-min intervals until the end (t = 120 min) of the experiment.

[4] = target: T2, porcine pancreatic amylase (Sus scrofa, UniProt P00690); assay: α-Amylase inhibitory activity; format: biochemical; conditions: mean ± SD, triplicates; read-out: α-Amylase enzyme IC50 (converted)
T2 construct: purchased Frutarom (UK)
T2 sequence (P00690 16-511): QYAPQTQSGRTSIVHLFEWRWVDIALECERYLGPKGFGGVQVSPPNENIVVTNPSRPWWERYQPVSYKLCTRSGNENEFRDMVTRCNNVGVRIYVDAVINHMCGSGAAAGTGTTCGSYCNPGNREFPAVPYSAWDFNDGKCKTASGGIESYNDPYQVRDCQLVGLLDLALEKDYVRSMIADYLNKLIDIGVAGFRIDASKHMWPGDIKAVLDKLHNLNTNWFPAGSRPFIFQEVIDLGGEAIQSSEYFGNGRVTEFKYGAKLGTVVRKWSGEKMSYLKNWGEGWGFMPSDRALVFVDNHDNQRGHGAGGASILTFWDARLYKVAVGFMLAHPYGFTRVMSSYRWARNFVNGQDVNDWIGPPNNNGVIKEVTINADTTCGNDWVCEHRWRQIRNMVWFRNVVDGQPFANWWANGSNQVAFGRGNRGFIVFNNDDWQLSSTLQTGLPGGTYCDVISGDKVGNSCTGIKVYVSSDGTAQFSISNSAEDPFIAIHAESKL
Experimental: The α-amylase inhibitory evaluation was established following the Wickramaratne et al. procedure[13] with minor changes. Working solutions with concentrations of 10, 50, 100, 500, and 1000 µg/ml were produced from our synthesized compounds, diluting them with a buffer of Na2HPO4/NaH2PO4 (0.02 M), NaCl (0.006 M) at pH 6.9 and then brined up to 10 ml using a 10 ml volumetric flask. […] As percent inhibition, the enzyme inhibitory potential was expressed, and the following equation was utilized to estimate the IC50 dose for the samples[14]. %a-AmylaseInhibiton=Abs100%control-AbsSample/Abs100%Control×100

α-glucosidase = assay: α-Glucosidase (α-glycosidase) inhibitory activity, PNPG substrate; format: biochemical; conditions: mean ± SD, triplicates
Experimental: The inhibition of α-glucosidase activity by the synthesized molecules was measured. The α-glucosidase inhibitory activity is expressed as percentages of inhibition, which was calculated using the following formula: Inhibitoryeffect%=Ab-As/Ab∗100% where Ab and As are the absorbance values of the blank (containing PBS, α-glucosidase, and PNPG, the colored substrate of glucosidase) and the tested samples containing PBS, samples, α-glycosidase, and PNPG, respectively. The α-glucosidase activity was measured using 10 and 20 mg/ml of the synthesized molecules. Each concentration was recorded by using […] PNPG. The inhibitory pattern was assessed using a Lineweaver–Burk plot. The constant Ki of enzyme inhibitory effect was determined.

Compound	IC50 [1] [µM]	Antioxidant activity IC50, DPPH test [2] [µg/mL]	Absorbance in β-carotene linoleic acid test [3]	Antioxidant efficiency in β-carotene linoleic acid test [3]	IC50 [4] [µM]	α-Glycosidase enzyme IC50 (α-glucosidase) [µg/mL]
O=C(OCCSc1ccccc1)c1ccccc1 [Compound 2a]	418	47.01 ± 1.07	1.04	higher antioxidant efficiency	13.8	10.09 ± 0.70
O=C(OCCSc1ccccc1)c1ccccc1O [Compound 2b]	–	–	0.84	higher antioxidant efficiency	45.3	89.95 ± 0.49
O=C(OCCSc1ccccc1)c1cccc(O)c1 [Compound 2c]	1240	–	–	–	71.3	78.1 ± 0.76
O=C(OCCSc1ccccc1)c1ccc(O)cc1 [Compound 2d]	434	–	–	–	48.9	114.17 ± 1.04
O=C(O)c1cc(O)c(O)c(O)c1 [Gallic acid, gallic acid]	–	31.72 ± 1.22	–	–	–	–
Cc1c(C)c2c(c(C)c1O)CC[C@@](C)(C(=O)O)O2 [Trolox, (S)-(–)-6 hydroxy-2,5,7,8-tetramethychroman-2-carboxylic acid]	–	4.28 ± 0.47	–	–	–	–
